Test results taken from article PMC5646234 (ChemPhotoChem, 2017).
pKd: −log10 of the molar value.

Biological target: T1, Saposin B (SapB) (Homo sapiens, UniProt P07602)
T1 sequence (P07602 195-273): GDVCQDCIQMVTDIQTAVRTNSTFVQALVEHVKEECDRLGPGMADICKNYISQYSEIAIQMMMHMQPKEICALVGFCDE
Assay: tyrosine fluorescence quenching titration
Assay type: binding

pKd: 4.60
SMILES: CC1=C(/C=C/C(C)=C/C=C/C(C)=C/c2cc(/C=C/C=C(C)/C=C/C3=C(C)CCCC3(C)C)cc[n+]2CCO)C(C)(C)CCC1 [A2E, 2-[(1E,3E,5E,7E)-2,5-dimethyl-8-(2,6,6-trimethyl-cyclohex-1-en-1-yl)octa-1,3,5,7-tetraen-1-yl]-1-(2-hydroxyethyl)-4-[(1E,3E,5E)-4-methyl-6-(2,6,6-trimethylcyclohex-1-en-1-yl)hexa-1,3,5-trien-1-yl]pyridinium]
